Measured values published in patent US11779559B2, “Compositions for treating fungal and bacterial biofilms and methods of using the same” (priority 2017, dated 2023).
Read-outs that look alike come from different tables or passages of the source.

Legend:
[1] = system: S. aureus; experiment: Disruption biofilm assay, bacterial; type: cell-based, Staphylococcus aureus; conditions: Staphylococcus aureus; for inhibition at 1 %: 24 h, read-out: Reduce B Biofilm
Method: (§1) Two types of biofilm assays were performed: a sustained inhibition assay and a disruption assay. The sustained inhibition assay assesses the compound's ability to prevent biofilm development throughout all stages of biofilm formation, while the disruption assay assesses the compound's ability to break up an existing mature biofilm. These assays are described in detail in the following article: Lohse, M. B., Gulati, M., Valle Arevalo, A., Fishburn, A., Johnson, A. D., and Nobile, C. […] Antimicrobial Agents and Chemotherapy 61: e02749-16.
(§2) All bacterial biofilm solutions were prepared in Trypic Soy Broth (TSB), supplemented with 1% glucose (henceforth referred to as TSB-G). All subsequent procedures were performed in a manner that maintained sterility. A solution of each amino acid to be tested was prepared in weight to volume concentrations ranging from 0.1-5.0%. Amino acids were also tested in combinations. Compound solutions were homogenized with gentle agitation in the dark (4° C., 24 hours) before use.
(§3) Bacterial strains were streaked on Blood Agar plates (5% sheep blood in Tryptic Soy Agar) and incubated at 37° C. for 24 hours. A single colony from each strain to be tested was inoculated in a TSB broth and grown for 12 hours, at 37° C. with shaking (225 rpm). For the bacterial biofilm inhibition assays, 1 μL of saturated overnight cell culture was added to either 80 μL of TSB-G, or TSB-G supplemented with the amino acid compound solution to be tested, in a 384-well plate. The cells were allowed to adhere to the plate for 60 minutes at 37° C. without shaking. The media was carefully aspirated and 80 μL of TSB-G, or TSB-G supplemented with the amino acid compound solution was added to the plate. The plate was further incubated for 24 hours at 37° C. without shaking. Media was carefully aspirated and the biofilm was measured by optical density at 600 nm. Eight or twelve replicates were performed for each tested condition and the reported values are normalized to the control (TSB-G media only). For the bacterial biofilm disruption assays, 80 μL of TSB-G was added to the plate, along with 1 μL of overnight cell culture. The cells were allowed to adhere to the plate for 60 minutes at 37° C. with no shaking. The media was carefully aspirated and 80 μL of TSB-G was added to the plate. The plate was further incubated for 24 hours at 37° C. with no shaking. Media was carefully aspirated from the mature biofilm and 80 μL of TSB-G, or TSB-G supplemented with the amino acid to be tested, was gently added to the plate. The plate was further incubated for 24 hours at 37° C. without shaking. Media was aspirated and the biofilm was measured by optical density at 600 nm. Twelve replicates were performed for each tested condition and the reported values are normalized to the control (TSB-G media only).

[2] = system: bacteria (S. aureus) biofilm and fungal (C. albicans) biofilm; experiment: Disruption biofilm assay, bacterial and fungal taken together; type: cell-based
Method: (§4) Two types of biofilm assays were performed: a sustained inhibition assay and a disruption assay. The sustained inhibition assay assesses the compound's ability to prevent biofilm development throughout all stages of biofilm formation, while the disruption assay assesses the compound's ability to break up an existing mature biofilm. These assays are described in detail in the following article: Lohse, M. B., Gulati, M., Valle Arevalo, A., Fishburn, A., Johnson, A. D., and Nobile, C. J. (2017) Assessment and optimizations of Candida albicans in vitro biofilm assays. Antimicrobial Agents and Chemotherapy 61: e02749-16.
as §2, with “For fungal biofilm assays, all solutions were prepared in RPMI 1640 medium. All bacterial” for “All bacterial”
(§5) Fungal strains were streaked on Yeast Peptone Dextrose (YPD) agar plates and incubated at 30° C. for 48 hours. A single colony from each strain to be tested was inoculated into YPD broth and grown for 12 hours, at 30° C., shaking at 225 rpm. For the fungal biofilm inhibition assay, 1 μl of saturated overnight cell culture was added to either 80 μL of RPMI-1640 or RPMI-1640 supplemented with the amino acid compound solution to be tested, in a 384-well plate. […] Media was carefully aspirated and the biofilm was measured by optical density at 600 nm. […] Media was carefully aspirated and the biofilm was measured by optical density at 600 nm. […]
(§6) Bacterial strains were streaked on Blood Agar plates (5% sheep blood in Tryptic Soy Agar) and incubated at 37° C. for 24 hours. […] Media was carefully aspirated and the biofilm was measured by optical density at 600 nm. […]

[3] = system: C. albicans; experiment: Disruption biofilm assay, fungal; type: cell-based, Candida albicans
Method: as §1, §2
(§7) Fungal strains were streaked on Yeast Peptone Dextrose (YPD) agar plates and incubated at 30° C. for 48 hours. A single colony from each strain to be tested was inoculated into YPD broth and grown for 12 hours, at 30° C., shaking at 225 rpm. […] The cells were allowed to adhere to the plate for 90 minutes at 37° C. with shaking (350 rpm). […] The plate was further incubated for 24 hours at 37° C. with shaking (350 rpm). Media was carefully aspirated and the biofilm was measured by optical density at 600 nm. […] The cells were allowed to adhere to the plate for 90 minutes at 37° C. with shaking (350 rpm). […] The plate was further incubated for 24 hours at 37° C. with shaking (350 rpm). […] The plate was further incubated for 24 hours at 37° C. with shaking (350 rpm). Media was carefully aspirated and the biofilm was measured by optical density at 600 nm.

[4] = system: fungal and bacterial biofilms; experiment: Biofilm assays (sustained inhibition and disruption), fungal and bacterial biofilms; type: cell-based; conditions: for Effect on biofilms: single component on its own; for Effect on bacterial or fungal biofilms in both assays: sustained inhibition and disruption
Method: as §4
as §2, with “For fungal biofilm assays, all solutions were prepared in RPMI 1640 medium. All bacterial” for “All bacterial”
(§8) All biofilm assays were performed using 384-well non-tissue culture treated polystyrene plates. The fungal species tested are as follows: Candida albicans, Candida guilhermondii, Candida parapsilosis, Candida glabrata, Candida tropicalis, Candida dubliniensis, and Candida auris. The bacterial species tested are as follows: Staphylococcus aureus (standard wild type and methicillin-resistant strain USA300), Escherichia coli, Pseudomonas aeruginosa and Staphylococcus epidermidis.
(§9) Fungal strains were streaked on Yeast Peptone Dextrose (YPD) agar plates and incubated at 30° C. for 48 hours. A single colony from each strain to be tested was inoculated into YPD broth and grown for 12 hours, at 30° C., shaking at 225 rpm. For the fungal biofilm inhibition assay, 1 μl of saturated overnight cell culture was added to either 80 μL of RPMI-1640 or RPMI-1640 supplemented with the amino acid compound solution to be tested, in a 384-well plate. The cells were allowed to adhere to the plate for 90 minutes at 37° C. with shaking (350 rpm). Loosely bound cells were washed once with phosphate buffered saline (PBS) and 80 ul of RPMI-1640, or RPMI-1640 supplemented with the amino acid compound solution was added to the plate. The plate was further incubated for 24 hours at 37° C. with shaking (350 rpm). Media was carefully aspirated and the biofilm was measured by optical density at 600 nm. Twelve replicates were performed for each tested condition and the reported values are normalized to the control (RPMI-1640 media only). For the fungal biofilm disruption assays, 80 μL of RPMI-1640 was added to the plate, along with 1 μL of overnight cell culture. The cells were allowed to adhere to the plate for 90 minutes at 37° C. with shaking (350 rpm). Loosely bound cells were washed once with PBS and 80 μL of RPMI-1640 was added to the plate. The plate was further incubated for 24 hours at 37° C. with shaking (350 rpm). Media was carefully aspirated from the mature biofilm and 80 μL of RPMI-1640, or RPMI-1640 supplemented with the amino acid compound solution to be tested, was gently added to the plate. The plate was further incubated for 24 hours at 37° C. with shaking (350 rpm). Media was carefully aspirated and the biofilm was measured by optical density at 600 nm. Twelve replicates were performed for each tested condition and the reported values are normalized to the control (RPMI-1640 media only).
Bacterial strains were streaked on Blood Agar plates (5% sheep blood in Tryptic Soy Agar) and incubated at 37° C. for 24 hours. A single colony from each strain to be tested was inoculated in a TSB broth and grown for 12 hours, at 37° C. with shaking (225 rpm).

[5] = system: S. aureus; experiment: Sustained inhibition biofilm assay, bacterial; type: cell-based, Staphylococcus aureus
Method: as §1, §2, §3

[6] = system: C. albicans; experiment: Sustained inhibition biofilm assay, fungal; type: cell-based, Candida albicans
Method: as §1, §2, §7

[7] = system: bacteria (S. aureus) biofilm and fungal (C. albicans) biofilm; experiment: Sustained inhibition biofilm assay, bacterial and fungal taken together; type: cell-based
Method: as §4
as §2, with “For fungal biofilm assays, all solutions were prepared in RPMI 1640 medium. All bacterial” for “All bacterial”
as §5, §6

[8] = system: bacterial biofilms; experiment: Biofilm assays (sustained inhibition and/or disruption), bacterial biofilms; type: cell-based; conditions: in at least one of the two biofilm assays
Method: as §4
as §2, with “For fungal biofilm assays, all solutions were prepared in RPMI 1640 medium. All bacterial” for “All bacterial”
as §8, §3

[9] = system: fungal biofilms; experiment: Biofilm assays (sustained inhibition and/or disruption), fungal biofilms; type: cell-based; conditions: in at least one of the two biofilm assays; for Anti-biofilm effect against fungal biofilms (reduction): administered individually
Method: as §4
as §2, with “For fungal biofilm assays, all solutions were prepared in RPMI 1640 medium. All bacterial” for “All bacterial”
as §8, §9

[10] = Thermal stability in hot aqueous solution; type: physicochemical; conditions: water at about 90° C. to 100° C.
Source text: This ingredient is the non-essential amino acid glutamine.

[11] = disruption assay, C. albicans, 1% amino acid (unless specifically noted), p≤0.001
[12] = disruption assay, S. aureus, 1% amino acid (unless specifically noted), p≤0.001
[13] = sustained inhibition assay, C. albicans, 1% amino acid (unless specifically noted), p≤0.001

N[C@@H](CCC(=O)O)C(=O)O [Glutamic Acid, L-glutamic acid]
inhibition at 1 % [1]: > 30% | Reduce Both [2]: ●● (two dots [ie. ••] signifies major effect (greater than about 30% change)) | Reduce F Biofilm [3]: ●● (two dots [ie. ••] signifies major effect (greater than about 30% change)) | Effect on biofilms [4]: very active against biofilms | Reduce B Biofilm [5]: ●● (two dots [ie. ••] signifies major effect (greater than about 30% change)) | Reduce F Biofilm [6]: ●● (two dots [ie. ••] signifies major effect (greater than about 30% change)) | Reduce Both [7]: ●● (two dots [ie. ••] signifies major effect (greater than about 30% change))

O=C(O)[C@@H]1CCCN1 [Proline, L-proline]
activation at 1 % ([1]; disruption assay, S. aureus, 1% amino acid (unless specifically noted), p≤0.001, read-out: Promote B Biofilm): 10 to 30% | Reduce F Biofilm [3, 11]: ● (a single dot [ie. •] signifies minor effect (from about 10 to about 30% change)) | Effect on bacterial biofilm growth [8]: support (improve) bacterial biofilm growth | Anti-biofilm effect against fungal biofilms (reduction) [9]: less than twofold

Cn1cncc1C[C@H](N)C(=O)O [3-Methylhistidine, 3-methyl-L-histidine]
inhibition at 1 % [1, 12]: 10 to 30% | Effect on fungal biofilm growth [9]: support (improve) fungal biofilm growth | Promote F Biofilm [6, 13]: ● (a single dot [ie. •] signifies minor effect (from about 10 to about 30% change))

Cn1cnc(C[C@H](N)C(=O)O)c1 [1-Methylhistidine, 1-methyl-L-histidine]
Effect on bacterial or fungal biofilms in both assays [4]: neutral

N[C@@H](Cc1c[nH]cn1)C(=O)O [Histidine, L-histidine]
Effect on bacterial or fungal biofilms in both assays [4]: neutral

N[C@@H](CS)C(=O)O [Cysteine, L-cysteine]
inhibition at 1 % [1, 12]: > 30% | Reduce Both ([2]; disruption assay, bacterial and fungal biofilm, 1% amino acid (unless specifically noted), p≤0.001): ●● (two dots [ie. ••] signifies major effect (greater than about 30% change)) | Reduce F Biofilm [3, 11]: ●● (two dots [ie. ••] signifies major effect (greater than about 30% change)) | Reduce B Biofilm ([5]; sustained inhibition assay, S. aureus, 1% amino acid (unless specifically noted), p≤0.001): ●● (two dots [ie. ••] signifies major effect (greater than about 30% change)) | Reduce F Biofilm [6, 13]: ●● (two dots [ie. ••] signifies major effect (greater than about 30% change)) | Reduce Both ([7]; sustained inhibition assay, bacterial and fungal biofilm, 1% amino acid (unless specifically noted), p≤0.001): ●● (two dots [ie. ••] signifies major effect (greater than about 30% change))

N[C@@H](Cc1ccc(O)cc1)C(=O)O [Tyrosine, L-tyrosine]
Effect on biofilms [4]: neutral effect on biofilms | Effect on bacterial or fungal biofilms in both assays [4]: neutral

N[C@@H](COP(=O)(O)O)C(=O)O [Phosphoserine, O-phospho-L-serine]
inhibition at 1 % [1, 12]: 10 to 30% | Reduce F Biofilm [3, 11]: ● (a single dot [ie. •] signifies minor effect (from about 10 to about 30% change)) | Anti-biofilm effect against fungal biofilms (reduction) [9]: less than twofold

CCC(N)C(=O)O (centres unmarked) [2 Aminobutyric Acid, 2-aminobutyric acid]
Effect on bacterial or fungal biofilms in both assays [4]: neutral

N[C@@H](Cc1c[nH]c2ccccc12)C(=O)O [Tryptophan, L-tryptophan]
Effect on bacterial or fungal biofilms in both assays [4]: neutral

N[C@@H](CCS)C(=O)O [Homocysteine (0.4%), L-homocysteine]
Anti-biofilm effect against fungal biofilms (reduction) [9]: less than twofold

CC(C)[C@H](N)C(=O)O [Valine, L-valine]
inhibition at 1 % [1, 12]: 10 to 30% | Effect on fungal biofilm growth [9]: support (improve) fungal biofilm growth | Promote F Biofilm [6, 13]: ● (a single dot [ie. •] signifies minor effect (from about 10 to about 30% change))

NCCO [Ethanolamine, ethanolamine]
Anti-biofilm effect against fungal biofilms (reduction) [9]: less than twofold | Reduce F Biofilm [6, 13]: ● (a single dot [ie. •] signifies minor effect (from about 10 to about 30% change))

NC(=O)CC[C@H](N)C(=O)O [Glutamine, L-glutamine]
Effect on bacterial or fungal biofilms in both assays [4]: neutral | Thermal degradation in aqueous solution [10]: highly susceptible to thermal degradation

OCC(O)CO [glycerol]
Effect on biofilms [4]: not found to have antibiofilm effects
